ChEMBL document CHEMBL3879902, “Compounds and methods for kinase modulation, and indications thereof” (2012)

Assay: Aqueous solubility of the compound in simulated gastric fluid at pH 1.5
Assay type: ADME
Details: simulated gi fluid

| SMILES | solubility |
| --- | --- |
| N#Cc1cnc2[nH]cc(C(=O)c3cccc(NS(=O)(=O)c4ccccc4)c3F)c2c1 | Insoluble |
| Cc1cnc2[nH]cc(C(=O)c3c(F)ccc(NS(=O)(=O)c4ccccc4F)c3F)c2c1 | Insoluble |
| CCCS(=O)(=O)Nc1ccc(F)c(C(=O)c2c[nH]c3ncc(-c4cnc(N5CCCC5)nc4)cc23)c1F | Soluble |
| O=C(c1c(F)ccc(NS(=O)(=O)c2ccccc2F)c1F)c1c[nH]c2nccc(Cl)c12 | Soluble |
| O=C(c1c(F)ccc(NS(=O)(=O)c2cc(F)ccc2F)c1F)c1c[nH]c2nccc(Cl)c12 | Insoluble |
| CCCS(=O)(=O)Nc1cccc(C(=O)c2c[nH]c3ncc(-c4cnc(N(C)C)nc4)cc23)c1F | Insoluble |
| COc1ccnc2[nH]cc(C(=O)c3c(F)ccc(NS(=O)(=O)c4cccc(F)c4)c3F)c12 | Soluble |

The remaining lines, values ahead:

| solubility | SMILES |
| --- | --- |
| Insoluble | CCCS(=O)(=O)Nc1ccc(F)c(C(=O)c2c[nH]c3ncc(-c4ccnc(F)c4)cc23)c1F |
| Insoluble | CCCS(=O)(=O)Nc1ccc(F)c(C(=O)c2c[nH]c3ncc(-c4ccc(C(=O)NC5CC5)nc4)cc23)c1F |
| Insoluble | CCCS(=O)(=O)Nc1ccc(F)c(C(=O)c2c[nH]c3ncc(-c4cnc(SC)nc4)cc23)c1F |
| Soluble | CCCS(=O)(=O)Nc1ccc(F)c(C(=O)c2c[nH]c3ncc(-c4ccc(OCCCN(C)C)nc4)cc23)c1F |
| Soluble | CCCS(=O)(=O)Nc1ccc(F)c(C(=O)c2c[nH]c3ncc(-c4cncnc4)cc23)c1F |
| Insoluble | CCCS(=O)(=O)Nc1ccc(F)c(C(=O)c2c[nH]c3ncc(-c4ccc(C(=O)NC)nc4)cc23)c1F |
| Soluble | CCCS(=O)(=O)Nc1ccc(F)c(C(=O)c2c[nH]c3ncc(-c4ccc(N(C)C)nc4)cc23)c1F |
| Soluble | CCCS(=O)(=O)Nc1ccc(F)c(C(=O)c2c[nH]c3ncc(-c4ccc(OCCN5CCOCC5)nc4)cc23)c1F |
| Insoluble | CCCS(=O)(=O)Nc1ccc(F)c(C(=O)c2c[nH]c3ncc(-c4ccc(S(N)(=O)=O)cc4)cc23)c1F |

Assay: Aqueous solubility of the compound in simulated intestinal fluid at pH 6.8
Assay type: ADME
Details: simulated gi fluid

| SMILES | solubility |
| --- | --- |
| N#Cc1cnc2[nH]cc(C(=O)c3cccc(NS(=O)(=O)c4ccccc4)c3F)c2c1 | Soluble |
| Cc1cnc2[nH]cc(C(=O)c3c(F)ccc(NS(=O)(=O)c4ccccc4F)c3F)c2c1 | Soluble |
| CCCS(=O)(=O)Nc1ccc(F)c(C(=O)c2c[nH]c3ncc(-c4cnc(N5CCCC5)nc4)cc23)c1F | Insoluble |
| O=C(c1c(F)ccc(NS(=O)(=O)c2ccccc2F)c1F)c1c[nH]c2nccc(Cl)c12 | Soluble |
| O=C(c1c(F)ccc(NS(=O)(=O)c2cc(F)ccc2F)c1F)c1c[nH]c2nccc(Cl)c12 | Soluble |
| CCCS(=O)(=O)Nc1cccc(C(=O)c2c[nH]c3ncc(-c4cnc(N(C)C)nc4)cc23)c1F | Insoluble |
| COc1ccnc2[nH]cc(C(=O)c3c(F)ccc(NS(=O)(=O)c4cccc(F)c4)c3F)c12 | Soluble |

The next lines start with the values.

| solubility | SMILES |
| --- | --- |
| Insoluble | CCCS(=O)(=O)Nc1ccc(F)c(C(=O)c2c[nH]c3ncc(-c4ccnc(F)c4)cc23)c1F |
| Insoluble | CCCS(=O)(=O)Nc1ccc(F)c(C(=O)c2c[nH]c3ncc(-c4ccc(C(=O)NC5CC5)nc4)cc23)c1F |
| Insoluble | CCCS(=O)(=O)Nc1ccc(F)c(C(=O)c2c[nH]c3ncc(-c4cnc(SC)nc4)cc23)c1F |
| Insoluble | CCCS(=O)(=O)Nc1ccc(F)c(C(=O)c2c[nH]c3ncc(-c4ccc(OCCCN(C)C)nc4)cc23)c1F |
| Soluble | CCCS(=O)(=O)Nc1ccc(F)c(C(=O)c2c[nH]c3ncc(-c4cncnc4)cc23)c1F |
| Insoluble | CCCS(=O)(=O)Nc1ccc(F)c(C(=O)c2c[nH]c3ncc(-c4ccc(C(=O)NC)nc4)cc23)c1F |
| Soluble | CCCS(=O)(=O)Nc1ccc(F)c(C(=O)c2c[nH]c3ncc(-c4ccc(N(C)C)nc4)cc23)c1F |
| Insoluble | CCCS(=O)(=O)Nc1ccc(F)c(C(=O)c2c[nH]c3ncc(-c4ccc(OCCN5CCOCC5)nc4)cc23)c1F |
| Insoluble | CCCS(=O)(=O)Nc1ccc(F)c(C(=O)c2c[nH]c3ncc(-c4ccc(S(N)(=O)=O)cc4)cc23)c1F |

Assay: Aqueous solubility of the compound in hepes buffer at pH 7.4
Assay type: physicochemical
Details: not given

| SMILES | solubility |
| --- | --- |
| N#Cc1cnc2[nH]cc(C(=O)c3cccc(NS(=O)(=O)c4ccccc4)c3F)c2c1 | Soluble |
| Cc1cnc2[nH]cc(C(=O)c3c(F)ccc(NS(=O)(=O)c4ccccc4F)c3F)c2c1 | Soluble |
| CCCS(=O)(=O)Nc1ccc(F)c(C(=O)c2c[nH]c3ncc(-c4cnc(N5CCCC5)nc4)cc23)c1F | Insoluble |
| O=C(c1c(F)ccc(NS(=O)(=O)c2ccccc2F)c1F)c1c[nH]c2nccc(Cl)c12 | Soluble |
| O=C(c1c(F)ccc(NS(=O)(=O)c2cc(F)ccc2F)c1F)c1c[nH]c2nccc(Cl)c12 | Soluble |
| CCCS(=O)(=O)Nc1cccc(C(=O)c2c[nH]c3ncc(-c4cnc(N(C)C)nc4)cc23)c1F | Insoluble |
| COc1ccnc2[nH]cc(C(=O)c3c(F)ccc(NS(=O)(=O)c4cccc(F)c4)c3F)c12 | Soluble |

Other lines, results leading:

| solubility | SMILES |
| --- | --- |
| Insoluble | CCCS(=O)(=O)Nc1ccc(F)c(C(=O)c2c[nH]c3ncc(-c4ccnc(F)c4)cc23)c1F |
| Insoluble | CCCS(=O)(=O)Nc1ccc(F)c(C(=O)c2c[nH]c3ncc(-c4ccc(C(=O)NC5CC5)nc4)cc23)c1F |
| Insoluble | CCCS(=O)(=O)Nc1ccc(F)c(C(=O)c2c[nH]c3ncc(-c4cnc(SC)nc4)cc23)c1F |
| Insoluble | CCCS(=O)(=O)Nc1ccc(F)c(C(=O)c2c[nH]c3ncc(-c4ccc(OCCCN(C)C)nc4)cc23)c1F |
| Soluble | CCCS(=O)(=O)Nc1ccc(F)c(C(=O)c2c[nH]c3ncc(-c4cncnc4)cc23)c1F |
| Insoluble | CCCS(=O)(=O)Nc1ccc(F)c(C(=O)c2c[nH]c3ncc(-c4ccc(C(=O)NC)nc4)cc23)c1F |
| Soluble | CCCS(=O)(=O)Nc1ccc(F)c(C(=O)c2c[nH]c3ncc(-c4ccc(N(C)C)nc4)cc23)c1F |
| Insoluble | CCCS(=O)(=O)Nc1ccc(F)c(C(=O)c2c[nH]c3ncc(-c4ccc(OCCN5CCOCC5)nc4)cc23)c1F |
| Insoluble | CCCS(=O)(=O)Nc1ccc(F)c(C(=O)c2c[nH]c3ncc(-c4ccc(S(N)(=O)=O)cc4)cc23)c1F |

Assay: Aqueous solubility of the compound in simulated intestinal fluid at pH 4.5
Assay type: ADME
Details: simulated gi fluid

| SMILES | solubility |
| --- | --- |
| N#Cc1cnc2[nH]cc(C(=O)c3cccc(NS(=O)(=O)c4ccccc4)c3F)c2c1 | Insoluble |
| Cc1cnc2[nH]cc(C(=O)c3c(F)ccc(NS(=O)(=O)c4ccccc4F)c3F)c2c1 | Soluble |
| CCCS(=O)(=O)Nc1ccc(F)c(C(=O)c2c[nH]c3ncc(-c4cnc(N5CCCC5)nc4)cc23)c1F | Insoluble |
| O=C(c1c(F)ccc(NS(=O)(=O)c2ccccc2F)c1F)c1c[nH]c2nccc(Cl)c12 | Soluble |
| O=C(c1c(F)ccc(NS(=O)(=O)c2cc(F)ccc2F)c1F)c1c[nH]c2nccc(Cl)c12 | Soluble |
| CCCS(=O)(=O)Nc1cccc(C(=O)c2c[nH]c3ncc(-c4cnc(N(C)C)nc4)cc23)c1F | Insoluble |
| COc1ccnc2[nH]cc(C(=O)c3c(F)ccc(NS(=O)(=O)c4cccc(F)c4)c3F)c12 | Soluble |

More lines, now with the values ahead:

| solubility | SMILES |
| --- | --- |
| Insoluble | CCCS(=O)(=O)Nc1ccc(F)c(C(=O)c2c[nH]c3ncc(-c4ccnc(F)c4)cc23)c1F |
| Insoluble | CCCS(=O)(=O)Nc1ccc(F)c(C(=O)c2c[nH]c3ncc(-c4ccc(C(=O)NC5CC5)nc4)cc23)c1F |
| Insoluble | CCCS(=O)(=O)Nc1ccc(F)c(C(=O)c2c[nH]c3ncc(-c4cnc(SC)nc4)cc23)c1F |
| Soluble | CCCS(=O)(=O)Nc1ccc(F)c(C(=O)c2c[nH]c3ncc(-c4ccc(OCCCN(C)C)nc4)cc23)c1F |
| Soluble | CCCS(=O)(=O)Nc1ccc(F)c(C(=O)c2c[nH]c3ncc(-c4cncnc4)cc23)c1F |
| Insoluble | CCCS(=O)(=O)Nc1ccc(F)c(C(=O)c2c[nH]c3ncc(-c4ccc(C(=O)NC)nc4)cc23)c1F |
| Insoluble | CCCS(=O)(=O)Nc1ccc(F)c(C(=O)c2c[nH]c3ncc(-c4ccc(N(C)C)nc4)cc23)c1F |
| Soluble | CCCS(=O)(=O)Nc1ccc(F)c(C(=O)c2c[nH]c3ncc(-c4ccc(OCCN5CCOCC5)nc4)cc23)c1F |
| Insoluble | CCCS(=O)(=O)Nc1ccc(F)c(C(=O)c2c[nH]c3ncc(-c4ccc(S(N)(=O)=O)cc4)cc23)c1F |
